Read-outs that look alike come from different tables or passages of the source.
Columns and labels:
A427 cells = assay: Cytotoxicity assay (resazurin) in A427 cells; assay type: cell-based; conditions: read-out: Cell Viability IC50 A427
Description: Cells were allowed to grow at 37° C. for 24 hr in 5% CO2 environment (culture conditions) in a Nuaire incubator (humidified). Serially diluted test compounds (100 μL) within the desired testing concentration ranges were added to the culture plate were further incubated in culture conditions for 72 hr and 96 hr for A427 and A549 respectively. The experiment was terminated at the designated incubation time by replacing the medium with 100 μL of 1 mM of resazurin (R7017; Sigma) prepared in respective culture medium, and the plates were further incubated in culture conditions for 4-6 hr. Fluorescence was recorded using a multimodal plate reader (Biotek Synergy Neo) at an excitation wavelength of 535 nm and emission wavelength of 590 nm to obtain relative fluorescence units. Data analysis was done by subtracting the background fluorescence (only medium blank) value from each reading and then normalizing with the vehicle control (DMSO treated cells) to obtain percent survival/proliferation. Percent survival was then subtracted by 100 to get the percent inhibition of proliferation which was used to calculate IC50 values.

WEE1 kinase enzyme = WEE1 kinase enzyme (Homo sapiens (Human), UniProt P30291); assay: WEE1 IC50 determination, LanthaScreen Terbium Labeled TR-FRET kinase assay; assay type: biochemical; conditions: WEE1 enzyme 1 nM, ATP 10 μM, 1 h
Description: IC50 values of compounds against WEE1 kinase enzyme were determined by LanthaScreen™ Terbium Labeled TR-FRET assay. […] After 1 h, […] stop solution containing Terbium labeled antibody (4 nM) (#PV3529, Invitrogen, Life Technologies Grand Island, N.Y.) and EDTA (#E5134, Sigma, St-Louis, Mo.) (20 mM) in TR-FRET dilution buffer (#PV3574, Invitrogen, Life Technologies Grand Island, N.Y.) was added. Readings were taken in a Synergy Neo Plate reader (BioTek, Winooski) at single excitation of 340 nm and Dual emission at 495 nm and 520 nm respectively.
The % activity of test samples was calculated as (Sample−Min)*100/(Max−Min). [Max: DMSO control, complete reaction with enzyme & DMSO and Min: No enzyme & DMSO].

[1] = Homo sapiens, A-427, 72 h, A427, 72 hr

WEE1 kinase enzyme, sequence (P30291 whole entry): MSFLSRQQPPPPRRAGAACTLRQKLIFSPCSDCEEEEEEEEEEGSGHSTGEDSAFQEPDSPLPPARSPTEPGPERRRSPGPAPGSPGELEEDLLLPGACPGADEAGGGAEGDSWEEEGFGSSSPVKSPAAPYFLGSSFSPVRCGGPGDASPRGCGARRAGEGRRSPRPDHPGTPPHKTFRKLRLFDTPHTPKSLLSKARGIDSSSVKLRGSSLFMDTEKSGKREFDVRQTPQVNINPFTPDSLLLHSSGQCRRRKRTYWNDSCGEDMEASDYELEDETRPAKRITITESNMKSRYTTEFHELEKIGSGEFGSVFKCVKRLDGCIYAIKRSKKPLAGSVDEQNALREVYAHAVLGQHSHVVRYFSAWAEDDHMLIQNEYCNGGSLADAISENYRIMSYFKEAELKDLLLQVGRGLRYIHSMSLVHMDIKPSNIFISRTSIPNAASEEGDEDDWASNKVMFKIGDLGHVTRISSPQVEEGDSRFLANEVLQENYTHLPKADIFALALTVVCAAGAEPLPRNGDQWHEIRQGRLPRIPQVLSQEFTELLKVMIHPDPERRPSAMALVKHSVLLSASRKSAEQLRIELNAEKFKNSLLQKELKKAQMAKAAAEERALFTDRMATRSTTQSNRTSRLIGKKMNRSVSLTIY

Compound | IC50 (A427 cells; [1]) [nM] | IC50 (WEE1 kinase enzyme) [nM] | IC50 (A427 cells; Homo sapiens, A-427, A427, 72 hr) [nM] | IC50 (A427 cells; A427, 72 hr) [nM]
CCn1c(=O)c2cnc(Nc3ccc4c(c3)CNCC4)nc2n1-c1cccc(OC)n1 [Example 1.18] | 7060 | 25 | – | –
CCn1c(=O)c2cnc(Nc3ccc4c(c3)CCNC4)nc2n1-c1cccc(OC)n1 [Example 1.23] | 3210 | 40 | – | –
CC(C)(O)c1cccc(-n2c3nc(Nc4ccc5c(c4)CCNC5)ncc3c(=O)n2C2CC2)n1 [Example 1.24] | 6030 | 23 | – | –
CCn1c(=O)c2cnc(Nc3ccc4c(c3)CNCC4)nc2n1-c1cccc(C(=O)NC)n1 [Example 1.25] | > 30000 | 99 | – | –
CCn1c(=O)c2cnc(Nc3ccc4c(c3)CNCC4)nc2n1-c1cccc(NC)n1 [Example 1.27] | 4140 | 10 | – | –
CCn1c(=O)c2cnc(Nc3ccc4c(c3)CNCC4)nc2n1-c1cccc(N2CCCC2=O)n1 [Example 1.31] | 1320 | 5 | – | –
CCn1c(=O)c2cnc(Nc3ccc4c(c3)CNCC4)nc2n1-c1cccc(C(F)(F)F)n1 [Example 1.41] | 5120 | 44 | – | –
CCn1c(=O)c2cnc(Nc3ccc4c(c3)CNCC4)nc2n1-c1cccc(NC(C)=O)n1 [Example 1.47] | 3020 | 5 | – | –
CC(C)n1c(=O)c2cnc(Nc3ccc4c(c3)CCNC4)nc2n1-c1cccc(C(C)(C)O)n1 [Example 1.69] | 485 | 11 | – | –
CCn1c(=O)c2cnc(Nc3ccc4c(c3)CNCC43CC3)nc2n1-c1cccc(C(C)(C)O)n1 [Example 1.70] | 640 | 15 | – | –
CCn1c(=O)c2cnc(Nc3cccc4c3CCNC4)nc2n1-c1cccc(C(C)(C)O)n1 [Example 1.125] | > 30000 | > 5000 | – | –
CCn1c(=O)c2cnc(Nc3ccc4c(c3)CNCC4)nc2n1-c1cccc(C(C)(C)C)n1 [Example 1.126] | 275 | < 1 | – | –
CCn1c(=O)c2cnc(Nc3cnc4c(c3)CNCC4)nc2n1-c1cccc(C(C)(C)O)n1 [Example 1.127] | > 23000 | 58 | – | –
CCn1c(=O)c2cnc(Nc3ccc4c(c3)CN(CCO)CC4)nc2n1-c1cccc(C(C)(C)O)n1 [Example 1.128] | 1550 | 6 | – | –
CCn1c(=O)c2cnc(Nc3ccc4c(c3)CN(CC(=O)N(C)C)CC4)nc2n1-c1cccc(C(C)(C)O)n1 [Example 1.129] | 865 | 6 | – | –
CCn1c(=O)c2cnc(Nc3ccc4c(c3)CNCC4)nc2n1-c1ccccn1 [Example 1.130] | 9070 | 18 | – | –
CCn1c(=O)c2cnc(Nc3ccc4c(c3)CCNC4)nc2n1-c1cccc(C(C)(C)C)n1 [Example 1.131] | 285 | 0.6 | – | –
CCn1c(=O)c2cnc(Nc3ccc4c(c3)CNC4)nc2n1-c1cccc(C(C)(C)O)n1 [Example 1.132] | – | 4 | 1680 | –
CCn1c(=O)c2cnc(Nc3ccc4c(c3)CC(N(C)C)C4)nc2n1-c1cccc(C(C)(C)O)n1 (stereo not shown) [Example 1.133] | 583 | 6 | – | –
CCn1c(=O)c2cnc(Nc3ccc4c(c3)CNCC4)nc2n1-c1ccnc(C(C)(C)C)c1 [Example 1.134] | 820 | 9 | – | –
CCn1c(=O)c2cnc(Nc3ccc4c(c3)CC(N(C)C)CC4)nc2n1-c1cccc(C(C)(C)O)n1 (stereo not shown) [Example 1.135] | 440 | 20 | – | –
CCn1c(=O)c2cnc(Nc3ccc4c(c3)CCNC4)nc2n1-c1ccnc(C(C)(C)C)c1 [Example 1.136] | 1090 | 7 | – | –
CC(C)n1c(=O)c2cnc(Nc3ccc4c(c3)CNCC4)nc2n1-c1ccnc(C(C)(C)C)c1 [Example 1.137] | 415 | 4 | – | –
CC(C)n1c(=O)c2cnc(Nc3ccc4c(c3)CNCC4)nc2n1-c1cccc(C(C)(C)F)n1 [Example 1.139] | 355 | 4 | – | –
CCn1c(=O)c2cnc(Nc3cnc4c(c3)CNCC4)nc2n1-c1cccc(C(C)(C)C)n1 [Example 1.141] | 2970 | 24 | – | –
CCn1c(=O)c2cnc(Nc3ccc4c(c3)CNC4)nc2n1-c1cccc(C(C)(C)C)n1 [Example 1.142] | 390 | 4 | – | –
CC(C)n1c(=O)c2cnc(Nc3ccc4c(c3)CNCC4)nc2n1-c1cccc(C(C)(C)C)n1 [Example 1.144] | 260 | 0.6 | – | –

Compound | IC50 (A427 cells; [1]) [nM] | IC50 (WEE1 kinase enzyme) [nM] | IC50 (A427 cells; Homo sapiens, A-427, A427, 72 hr) [nM] | IC50 (A427 cells; A427, 72 hr) [nM]
CC(C)n1c(=O)c2cnc(Nc3ccc4c(c3)CCNC4)nc2n1-c1cccc(C(C)(C)C)n1 [Example 1.145] | 255 | 3 | – | –
CC(C)(C)c1cccc(-n2c3nc(Nc4ccc5c(c4)CCNC5)ncc3c(=O)n2C2CC2)n1 [Example 1.147] | – | 7 | – | 370
CC(C)n1c(=O)c2cnc(Nc3ccc4c(c3)CNCC4)nc2n1-c1cccc(C2CC2)n1 [Example 1.148] | 1080 | 2 | – | –
CC(C)n1c(=O)c2cnc(Nc3ccc4c(c3)CCNC4)nc2n1-c1cccc(C2CC2)n1 [Example 1.149] | 1130 | 3 | – | –
CC(n1c(=O)c2cnc(Nc3ccc4c(c3)CNCC4)nc2n1-c1cccc(C(C)(C)C)n1)C(F)(F)F (stereo not shown) [Example 1.150] | 3000 | 13 | – | –
CC(C)(C)c1cccc(-n2c3nc(Nc4ccc5c(c4)CNCC5)ncc3c(=O)n2C(C)(C)C)n1 [Example 1.151] | 3380 | 2540 | – | –
CC(C)(C)c1cccc(-n2c3nc(Nc4ccc5c(c4)CNCC5)ncc3c(=O)n2CC(F)(F)F)n1 [Example 1.152] | 1020 | < 1 | – | –
CC(CO)n1c(=O)c2cnc(Nc3ccc4c(c3)CNCC4)nc2n1-c1cccc(C(C)(C)C)n1 (stereo not shown) [Example 1.153] | 2540 | 16 | – | –
COCCn1c(=O)c2cnc(Nc3ccc4c(c3)CNCC4)nc2n1-c1cccc(C(C)(C)C)n1 [Example 1.154] | 2370 | 8 | – | –
CC(C)n1c(=O)c2cnc(Nc3ccc4c(c3)CCNC4)nc2n1-c1cccc(C(C)(C)C)c1 [Example 1.155] | 1980 | 2 | – | –
CC(C)n1c(=O)c2cnc(Nc3ccc4c(c3)CNCC4)nc2n1-c1cccc(C(C)(C)C)c1 [Example 1.156] | 1770 | 1 | – | –
C=CCn1c(=O)c2cnc(Nc3ccc4c(c3)CCNC4)nc2n1-c1ccnc(C(C)(C)C)c1 [Example 1.157] | 460 | 5 | – | –
C=CCn1c(=O)c2cnc(Nc3ccc4c(c3)CNCC4)nc2n1-c1ccnc(C(C)(C)C)c1 [Example 1.158] | 200 | 4 | – | –
CC(C)(C)c1cc(-n2c3nc(Nc4ccc5c(c4)CCNC5)ncc3c(=O)n2C2CC2)ccn1 [Example 1.159] | 3320 | 30 | – | –
CC(C)(C)c1cc(-n2c3nc(Nc4ccc5c(c4)CNCC5)ncc3c(=O)n2C2CC2)ccn1 [Example 1.160] | 3980 | 30 | – | –
CC(C)n1c(=O)c2cnc(Nc3ccc4c(c3)CNCC43CC3)nc2n1-c1ccnc(C(C)(C)C)c1 [Example 1.161] | 240 | 4 | – | –
CC(C)n1c(=O)c2cnc(Nc3ccc4c(c3)CNCC4(C)C)nc2n1-c1ccnc(C(C)(C)C)c1 [Example 1.162] | 385 | 11 | – | –
CC(C)n1c(=O)c2cnc(Nc3ccc4c(c3)CCNC4)nc2n1-c1ccnc(C(C)(C)F)c1 [Example 1.163] | 720 | 15 | – | –
CC(C)n1c(=O)c2cnc(Nc3ccc4c(c3)CC(N(C)C)C4)nc2n1-c1ccnc(C(C)(C)C)c1 (stereo not shown) [Example 1.164] | 485 | 8 | – | –
CC(C)n1c(=O)c2cnc(Nc3ccc4c(c3)CNC4)nc2n1-c1ccnc(C(C)(C)C)c1 [Example 1.165] | 1570 | 14 | – | –
CC(C)n1c(=O)c2cnc(Nc3ccc4c(c3)CCNC4)nc2n1-c1ccc(F)cc1 [Example 1.166] | 4130 | 29 | – | –
CC(C)n1c(=O)c2cnc(Nc3ccc4c(c3)CNCC4)nc2n1-c1ccc(F)cc1 [Example 1.167] | 2060 | 41 | – | –
CC(C)n1c(=O)c2cnc(Nc3ccc4c(c3)CCNC4)nc2n1-c1ccn(C(C)(C)C)n1 [Example 2.454] | – | 48 | – | –
CC(C)(F)c1cc(-n2c3nc(Nc4ccc5c(c4)CCNC5(C)C)ncc3c(=O)n2C2CC2)ccn1 [Example 2.555] | – | 153 | – | –
CC(C)(C)c1cc(-n2c3nc(Nc4ccc5c(c4)CNCC5(C)C)ncc3c(=O)n2C2CC2)ccn1 [Example 2.600] | – | 25 | – | –
CC(C)n1c(=O)c2cnc(Nc3ccc4c(c3)CCNC4)cc2n1-c1ccnc(C(C)(C)C)c1 [Example 2.732] | – | 179 | – | –
CC(C)n1c(=O)c2cnc(Nc3ccc4c(c3)CNCC4)cc2n1-c1ccnc(C(C)(C)C)c1 [Example 2.744] | 10400 | – | – | –

Source: US11299493B2, “Heterocyclic compounds and uses thereof” (NUVATION BIO INC., priority 2017, dated 2022)
